Laboratory results: PubChem BioAssay (NCI)
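Test compounds were applied to cells in 96-well plates for 48 hours at 5 doses. GI50 = concentration required for 50% inhibition of growth. TGI denotes the concentration required for complete inhibition of growth.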

Columns and labels:
Test in all cases: NCI tumour cell line growth inhibition, 48 h
[1] = test system: DLD-1 colon
[2] = test system: EKVX NSCLC
[3] = test system: HCT-15 colon
[4] = test system: KM12 colon
[5] = test system: NCI-H23 lung
[6] = test system: SF-268 CNS
[7] = test system: SW-620 colon
[8] = test system: UO-31 renal
[9] = test system: MDA-MB-435
[10] = test system: NCI/ADR-RES ovarian

Row | Compound | GI50 [1] | TGI [1] | GI50 [2] | TGI [2] | GI50 [3] | TGI [3] | GI50 [4] | TGI [4] | GI50 [5] | TGI [5] | GI50 [6] | TGI [6] | GI50 [7] | TGI [7] | GI50 [8] | TGI [8] | TGI [9] | TGI [10]
1 | CCC[CH2][Ge]([CH2]CCC)([CH2]CCC)[O]C(=O)CCl | 0.122 µM | 15.7 µM | 1.18 µM | 16.2 µM | 0.546 µM | 11.5 µM | 1.4 µM | 15.9 µM | 0.115 µM | 12.5 µM | 10.2 µM | 23.1 µM | 4.19 µM | 17.4 µM | 2.28 µM | 15.6 µM |  | 
2 | CC1Oc2c(c(O)cc3oc(=O)cc(-c4ccccc4)c23)C(=O)C1C (stereo not given) |  | > 100 µM |  | > 100 µM |  | > 100 µM |  |  |  | > 100 µM |  | > 100 µM |  | > 100 µM |  | > 100 µM |  | 
3 | O=c1c2cc(Cl)ccc2n2nnc3ccc(NCCNCCO)c1c32 |  | 5.76 µM |  | 4.44 µM |  | 2.59 µM |  | 3.48 µM |  | 2.86 µM |  | 8.86 µM |  | 2.51 µM |  | 3.49 µM | 2.36 µM | 
4 | CC1=NN(C(=O)Cc2ccccc2)C(=O)/C1=C\c1cccc(O)c1 |  | > 100 µM |  | > 100 µM |  | > 100 µM |  | > 100 µM |  | > 100 µM |  | > 100 µM |  | > 100 µM |  | > 100 µM |  | 
5 | C=C1C(=O)OC2C1CC1OC2C(C)CCC/C(C)=C\CCC1(C)O (stereo not given) |  | 64.8 µM |  | 79.4 µM |  | 63.6 µM |  | 59 µM |  | 29 µM |  | 51.8 µM |  | 32.6 µM |  | 79.6 µM |  | 55.2 µM
6 | C#Cc1ccccc1C(=O)OC |  | > 100 µM |  | > 100 µM |  | > 100 µM |  | > 100 µM |  | > 100 µM |  |  |  | > 100 µM |  | > 100 µM |  | 
7 | COc1ccc(CNc2cnc3cc(N)ccc3n2)cc1OC |  | > 100 µM |  | > 100 µM |  | > 100 µM |  | > 100 µM |  |  |  | > 100 µM |  | > 100 µM |  | > 100 µM |  | 
8 | O/N=C1/CCCCC1NO (stereo not given) |  |  |  | > 100 µM |  | > 100 µM |  | > 100 µM |  | > 100 µM |  | > 100 µM |  | > 100 µM |  | > 100 µM | > 100 µM | > 100 µM
9 | COc1cc(/C=C/C=C2\CC(C)C/C(=C\C=C\c3ccc(O)c(OC)c3)C2=O)ccc1O (stereo not given) |  |  |  | > 100 µM |  | > 100 µM |  | > 100 µM |  | 40.2 µM |  | > 100 µM |  | > 100 µM |  | 25.1 µM | 41 µM | 77.4 µM
10 | Cc1ccc(NC(=O)NC23CC4CC(CC(F)(C4)C2)C3)cc1 |  | > 100 µM |  | > 100 µM |  |  |  | > 100 µM |  | > 100 µM |  |  |  | > 100 µM |  | > 100 µM |  | 
11 | Cc1nc2ccccc2n1CCc1nc2ccccc2[nH]1 |  |  |  | > 100 µM |  | > 100 µM |  | > 100 µM |  | > 100 µM |  | > 100 µM |  | > 100 µM |  | > 100 µM | > 100 µM | > 100 µM
12 | Cc1cc(C(C)(C)C)c(OCCCN2CCOCC2)c(C(C)(C)C)c1 |  |  |  | 32.5 µM |  | 32.7 µM |  | 36 µM |  | 32 µM |  | 33.5 µM |  | 32.3 µM |  | 32.7 µM | 38.2 µM | 32 µM
13 | O=[N+]([O-])c1ccc(-c2nc3ccccc3o2)cc1 |  |  |  | > 100 µM |  | > 100 µM |  | > 100 µM |  | > 100 µM |  | > 100 µM |  | > 100 µM |  | > 100 µM | > 100 µM | > 100 µM
14 | CN(NC(=O)/C(=C/C=C/c1ccccc1)NC(=O)c1ccccc1)C1=C(Cl)C(=O)[N+](c2ccccc2)=CC1 |  |  |  | > 100 µM |  | 62.8 µM |  | 34 µM |  | > 100 µM |  | 70.4 µM |  | 33.8 µM |  | > 100 µM | 32.9 µM | 53.8 µM
15 | O=C(NNc1ccc([N+](=O)[O-])cc1)C1OC(CO)C(O)C1O (stereo not given) |  | > 100 µM |  | > 100 µM |  | > 100 µM |  | > 100 µM |  | > 100 µM |  | > 100 µM |  | 71.3 µM |  | > 100 µM |  | 
16 | C[C@@H](CC(O)C(O)C(C)(C)O)C1CCC23CC12CCC1[C@@]2(C)CCC(=O)C(C)(C)C2CC(OC2OC(CO)C(O)C(O)C2O)[C@]13C (stereo not given in full) |  |  |  | > 10 µM |  | > 10 µM |  | > 10 µM |  | > 10 µM |  | > 10 µM |  | > 10 µM |  | > 10 µM | > 10 µM | > 10 µM
17 | CC(=O)Oc1ccc(-c2c(OC(C)=O)c(OC(C)=O)c(-c3ccc(OC(C)=O)c(OC(C)=O)c3)c(OC(C)=O)c2OC(C)=O)cc1 |  |  |  | 20.2 µM |  | 37.3 µM |  | 28.1 µM |  | 38 µM |  | 32.8 µM |  | 38.6 µM |  | 28.8 µM | 31.7 µM | > 100 µM
18 | Cc1nc(-c2ccc(Cl)cc2)cn2c1nc1ccccc12 |  |  |  | > 100 µM |  | > 100 µM |  | > 100 µM |  | > 100 µM |  | > 100 µM |  | > 100 µM |  | > 100 µM | > 100 µM | > 100 µM
19 | O=C1C(=O)C(CCCO)(CCCO)CCCCCCCCC1(CCCO)CCCO |  |  |  | > 100 µM |  | > 100 µM |  | > 100 µM |  | > 100 µM |  | > 100 µM |  | > 100 µM |  | 60.4 µM | > 100 µM | > 100 µM
20 | O=C(n1c(=O)n(-c2ccc([N+](=O)[O-])cc2)c(=O)n1C(=O)C(Cl)(Cl)Cl)C(Cl)(Cl)Cl |  |  |  | > 100 µM |  | > 100 µM |  | > 100 µM |  | > 100 µM |  | > 100 µM |  | > 100 µM |  | > 100 µM | > 100 µM | > 100 µM
21 | CC1=C(C(=O)OC(C)C)C(c2cccc([N+](=O)[O-])c2)C(C(=O)OC(CO[N+](=O)[O-])CO[N+](=O)[O-])=C(C)N1 (stereo not given) |  |  |  | > 27.7 µM |  | 19 µM |  | 12.9 µM |  | > 100 µM |  | 22.7 µM |  | > 100 µM |  | > 50.1 µM | 15.3 µM | > 25.2 µM
